From the CheMixHub viscosity set
Several values for one entry are separate records, joined by “and”; a condition that tells them apart may be missing. Equal entries are not always repeated.

Assays:
[1] = xn = mol fraction of the nth substance listed; settings: 298.15 K, 101 kPa

C/C=C/C(=O)OCC
101 kPa
Settings	viscosity [mPa·s]
293.15 K	0.8184
298.15 K	0.7576
303.15 K	0.7053
313.15 K	0.6154
323.15 K	0.5471

C[N+]1(CC2CO2)CCCC1=O.[Cl-] (centres undefined)
101 kPa
Settings	viscosity
293.15 K	1.677 mPa·s and 1.623 mPa·s
298.15 K	1.537 mPa·s and 1.489 mPa·s
303.15 K	1.415 mPa·s and 1.373 mPa·s
308.15 K	1.309 mPa·s and 1.27 mPa·s
313.15 K	1.215 mPa·s and 1.18 mPa·s

CCCC[n+]1ccn(C)c1.O=[N+]([O-])[O-]
101 kPa
Settings	viscosity [mPa·s]
293.15 K	212.1
298.15 K	158.8
303.15 K	121.2
308.15 K	94.07
313.15 K	74.19
318.15 K	59.38
323.15 K	48.18

CCCCOCCO
Settings	viscosity
293.15 K, 101.3 kPa	3.248 mPa·s
293.15 K, 101.33 kPa	3.26 mPa·s
295.15 K, 101 kPa	3.015 mPa·s
297.15 K, 101 kPa	2.857 mPa·s
298 K, 101.3 kPa	2.786 mPa·s
298.15 K, 100 kPa	2.855 mPa·s
298.15 K, 101.3 kPa	2.834 mPa·s
298.15 K, 101.33 kPa	2.844 mPa·s
298.45 K, 101 kPa	2.825 mPa·s
299.15 K, 101 kPa	2.709 mPa·s
301.15 K, 101 kPa	2.576 mPa·s
303 K, 101.3 kPa	2.403 mPa·s
303.15 K, 101.33 kPa	2.408 mPa·s
305.15 K, 101 kPa	2.327 mPa·s
307.15 K, 101 kPa	2.217 mPa·s
308 K, 101.3 kPa	2.115 mPa·s
308.15 K, 100 kPa	2.274 mPa·s
308.15 K, 101.3 kPa	2.228 mPa·s and 2.204 mPa·s
308.15 K, 101.33 kPa	2.193 mPa·s
309.15 K, 101 kPa	2.118 mPa·s
311.15 K, 101 kPa	2.017 mPa·s
313 K, 101.3 kPa	1.867 mPa·s
313.15 K, 101.3 kPa	1.964 mPa·s
313.15 K, 101.33 kPa	1.97 mPa·s and 1.869 mPa·s
315.15 K, 101 kPa	1.844 mPa·s
317.15 K, 101 kPa	1.764 mPa·s
318 K, 101.3 kPa	1.657 mPa·s
318.15 K, 101 kPa	1.937 mPa·s and 1.938 mPa·s and 1.928 mPa·s
318.15 K, 101.3 kPa	1.759 mPa·s
318.15 K, 101.33 kPa	1.764 mPa·s
319.15 K, 101 kPa	1.688 mPa·s
321.15 K, 101 kPa	1.618 mPa·s
323.15 K, 101 kPa	1.552 mPa·s
323.15 K, 101.3 kPa	1.584 mPa·s
323.15 K, 101.33 kPa	1.588 mPa·s

CC(C)c1cc(C(C)C)cc(C(C)C)c1
102 kPa
Settings	viscosity [mPa·s]
293.15 K	4.12
303.15 K	3.05
313.15 K	2.35
323.15 K	1.86

O=C(OCc1ccccc1)c1ccccc1
Settings	viscosity
298.15 K, 101 kPa	8.454 mPa·s and 8.45 mPa·s
313.15 K, 101.33 kPa	5.04 mPa·s

CC[N+]1(C)CCCC1.COP(=O)([O-])OC
100 kPa
Settings	viscosity [mPa·s]
293.15 K	227.7
298.15 K	169.4
303.15 K	123.5
308.15 K	93.55
313.15 K	72.82
318.15 K	56.38
323.15 K	45.1

C[N+](C)(C)C.[OH-]
100 kPa
Settings	viscosity [mPa·s]
298.15 K	2.77
303.15 K	2.71
308.15 K	2.62
313.15 K	2.56

CCCCNCCO
101.33 kPa
Settings	viscosity [mPa·s]
293.15 K	19.67
298.15 K	15.39
303.15 K	12.23
308.15 K	9.869
313.15 K	8.07
318.15 K	6.68
323.15 K	5.591

CCCCCCBr
101 kPa
Settings	viscosity [mPa·s]
298.15 K	0.9475
303.45 K	0.885
313.35 K	0.782

CCNCCO
viscosity [mPa·s]
Settings	293.15 K	298.15 K	303.15 K	308.15 K	313.15 K	318.15 K	323.15 K
101 kPa	–	–	9.639	7.83	6.419	5.358	4.517
101.33 kPa	16.27	12.75	10.16	8.223	6.748	5.608	4.714

CCCCCCCCCCCC[P+](CCCC)(CCCC)CCCC.N#Cc1ccc[n-]1
100 kPa
Settings	viscosity [mPa·s]
293.15 K	567
298.15 K	389
303.15 K	297
313.15 K	166

CCOC(=O)CCl
viscosity
Settings	303.15 K	308.15 K
101.3 kPa	1.013 mPa·s and 1.013 mPa·s	0.93 mPa·s and 0.93 mPa·s
101.33 kPa	1.007 mPa·s and 1.007 mPa·s	0.933 mPa·s and 0.933 mPa·s

O=C(OCc1ccccc1)c1ccccc1 + CCOC(=O)c1ccccc1
[1]
Settings	viscosity [mPa·s]
x2 = 0.0465	8.039
x2 = 0.1549	6.898
x2 = 0.2475	6.108
x2 = 0.2973	5.695
x2 = 0.3945	4.948
x2 = 0.5054	4.309
x2 = 0.5941	3.74
x2 = 0.6906	3.249
x2 = 0.8023	2.749
x2 = 0.8963	2.371
